Test results as given in patent US6342499B1, “Parasitic and saprophagous mite control in beneficial insects” (BASF Aktiengesellschaft, priority 1998, dated 2002).

Columns and labels:
Format in all cases: in vivo
[1] = system: honeybees (Apis mellifera); assay: Example 4: METI, topical treatment of honeybees from hives 70% infested with Varroa; bee mortality; details: 5 days at 31° C.
Description: (§1) Honeybees (Apis mellifera) taken from hives which are 70% infested with Varroa jacobsoni are chilled to immobilize the bees. A 1 μl droplet of an acetone solution of test compound is applied to the dorsal abdomen of each bee; control bees receive a 1 μl droplet of acetone. A total of 50-52 bees are treated for each dose rate tested. The treated bees are placed in an incubator at 31° C. in the dark and fed 50% sugar water ad libitum for 5 days. After incubation, the bees are examined for mortality and mite infestation.

[2] = system: Varroa jacobsoni; assay: Example 4: METI, topical treatment of honeybees from hives 70% infested with Varroa; parasite mortality; details: 5 days at 31° C.
Description: as §1

[3] = system: Acarapis woodi (trachea mites); assay: Example 3: tracheal mites walked across glass slides dipped in test compound; time to 100% mortality; details: slides dipped in 500 ppm acetone solution
Description: In this evaluation, honeybees (Apis mellifera) which are infested with Acarapis woodi (trachea mites) are dissected to remove the infested tracheae. Glass microscope slides are dipped into acetone solutions of test compound (500 ppm) and the acetone is allowed to evaporate. Infested tracheae are placed directly on the treated slides. The mites are removed from the tracheae by dissection and forced to walk across the treated area. The elapsed time is recorded for 100% mortality, i.e. no movement is observed upon agitation.

[4] = system: Drosophila melanogaster; assay: Example 5: treated paper strips in mite-infested Drosophila culture vials; fly mortality; details: treated paper strip; for % Mortality Drosophila Adults: after 5 days at 25° C.; for % Mortality Drosophila larvae: after 15 days, percent of expected progeny vs untreated control
Description: (§2) Paper towel strips (2×7 cm) are dipped into an acetone solution of test compound and allowed to dry. Control paper towel strips are dipped into acetone and allowed to dry. Treated strips are placed in 2.5×9.5 cm culture vials containing a standard cornmeal-molasses-agar diet, such that the strips are inserted about 1 cm into the diet. Five pairs of heavily infested, newly emerged Drosophila melanogaster are placed into the test vials and incubated at 25° C. After 5 days, the adult flies are evaluated for % mortality and are removed rom each test vial. After 15 days, the mites [Proctoloaelaps sp.(Proct) and Histiostoma sp.(Hist)] and insect larva/pupa are evaluated for mortality and recorded as a percent of expected progeny as determined by the untreated control. At 14 days approximately 200-500 Histiostoma sp. mites (Hist) and approximately 50 Proctolaelaps sp. mites (Proct) are present in the untreated controls.

[5] = system: Proctolaelaps sp. mites (Proct); assay: Example 5: treated paper strips in mite-infested Drosophila culture vials; Proctolaelaps mortality; details: treated paper strip, after 15 days, percent of expected progeny vs untreated control
Description: as §2

[6] = system: Histiostoma sp. mites (Hist); assay: Example 5: treated paper strips in mite-infested Drosophila culture vials; Histiostoma mortality; details: treated paper strip, after 15 days, percent of expected progeny vs untreated control
Description: as §2

Structure (SMILES): CCCCCCCCCCCCC1=C(OC(C)=O)C(=O)c2ccccc2C1=O [Acequinocyl, acequinocyl]
- % Mortality Bees ([1]; dose 0.1 μg/bee): 15%
- % Mortality Bees ([1]; dose 1.0 μg/bee): 10%
- % Mortality Bees ([1]; dose 10.0 μg/bee): 42%
- % Mortality Parasites ([2]; dose 0.1 μg/bee): 12%
- % Mortality Parasites ([2]; dose 1.0 μg/bee): 0%
- % Mortality Parasites ([2]; dose 10.0 μg/bee): 83%

Structure (SMILES): Fc1ccc(Oc2cc(Oc3ccc(Cl)c(C(F)(F)F)c3)ncn2)cc1C(F)(F)F [C]
- Time required in minutes to achieve 100% mortality ([3]; Rep. 1): 16 min
- Time required in minutes to achieve 100% mortality ([3]; Rep. 2): 16 min
- Time required in minutes to achieve 100% mortality ([3]; Rep. 3): 15 min
- % Mortality Drosophila Adults ([4]; dose 10 ppm): 15%
- % Mortality Drosophila larvae ([4]; dose 10 ppm): 0%
- % Mortality Drosophila Adults ([4]; dose 50 ppm): 20%
- % Mortality Drosophila larvae ([4]; dose 50 ppm): 53%
- % Mortality Drosophila Adults ([4]; dose 100 ppm): 100%
- % Mortality Drosophila larvae ([4]; dose 100 ppm): 73%
- % Mortality Mites Proct ([5]; dose 10 ppm): 40%
- % Mortality Mites Proct ([5]; dose 50 ppm): 100%
- % Mortality Mites Proct ([5]; dose 100 ppm): 100%
- % Mortality Mites Hist ([6]; dose 10 ppm): 90%
- % Mortality Mites Hist ([6]; dose 50 ppm): 100%
- % Mortality Mites Hist ([6]; dose 100 ppm): 100%

Structure (SMILES): CC(C)(C)c1ccc(CCOc2ncnc3ccccc23)cc1 [Fenazaquin, fenazaquin]
- % Mortality Bees ([1]; dose 0.012 μg/bee): 18%
- % Mortality Bees ([1]; dose 0.12 μg/bee): 14%
- % Mortality Bees ([1]; dose 1.2 μg/bee): 18%
- % Mortality Parasites ([2]; dose 0.012 μg/bee): 19%
- % Mortality Parasites ([2]; dose 0.12 μg/bee): 27%
- % Mortality Parasites ([2]; dose 1.2 μg/bee): 87%

Structure (SMILES): Cc1nn(C)c(Oc2ccccc2)c1C=NOCc1ccc(C(=O)OC(C)(C)C)cc1 [Fenpyroximate, fenpyroximate]
- % Mortality Bees ([1]; dose 0.003 μg/bee): 13%
- % Mortality Bees ([1]; dose 0.03 μg/bee): 10%
- % Mortality Bees ([1]; dose 0.3 μg/bee): 24%
- % Mortality Parasites ([2]; dose 0.003 μg/bee): 7%
- % Mortality Parasites ([2]; dose 0.03 μg/bee): 30%
- % Mortality Parasites ([2]; dose 0.3 μg/bee): 100%

Structure (SMILES): CC(C)(C)c1ccc(CSc2cnn(C(C)(C)C)c(=O)c2Cl)cc1 [Pyridaben, pyridaben]
- % Mortality Bees ([1]; dose 0.001 μg/bee): 12%
- % Mortality Bees ([1]; dose 0.01 μg/bee): 10%
- % Mortality Bees ([1]; dose 0.1 μg/bee): 20%
- % Mortality Parasites ([2]; dose 0.001 μg/bee): 14%
- % Mortality Parasites ([2]; dose 0.01 μg/bee): 0%
- % Mortality Parasites ([2]; dose 0.1 μg/bee): 100%
